Measured values as given in patent US20050239804A1, “Method for improved chemical synthesis of guanidinium alkaloids” (The Regents of the University of California, priority 1999, published 2005).

Legend:
60 tumor cell lines = test: NCI DTP Human Tumor Cell Line Screen (60 tumor cell lines, Sulforhodamine B assay); type: cell-based; settings: 48 h exposure, five 10-fold dilutions
Description: This example describes the in vitro screening of 60 tumor cell lines against the compounds of the invention: ptilomycalin A, isocrambescidin 800 trihydrochloride, triacetylcrambescidin 800 chloride, crambescidin 657 hydrochloride, crambescidin 800 trihydrochloride, triacetylisocrambescidin 800 chloride, and 13-epiptilomycalin A to determine anti-tumor activity.
The screening methods utilized the National Cancer Institute (NCI) DTP Human Tumor Cell Line Screen protocol as described by Monks et al., J. Nat'l. Cancer Inst. 83:757-766 (1991); and Boyd In “Cancer Drug Discovery and Development, Vol; 2; Drug Development; Preclinical Screening, Clinical Trial and Approval, Humana Press, 1997, pp 23-43. The origins and processing of the cell lines used are described in Alley et al., Cancer Res., 1988, 48:589-601; Shoemaker et al., Prog. Clin. Biol. Res., 1988, 276:265-286; and Stinson et al., Proc. Am. Assoc. Cancer Res., 1989, 30:613.
In brief, in the screen protocol, cell suspensions were diluted depending on cell type and the expected target cell density (approximately 5000-40,000 cells per well) into a 96 well microtiter plate. Inoculates were preincubated for 24h at 37 °C for stabilization. Dilutions at twice the intended test concentrations were added at time zero in 100 μL aliquots to the microtiter plate wells. Test compounds were evaluated at five 10-fold dilutions. Routine test concentrations have the highest well concentration at 10E-4M, but for the standard agents, the highest well concentration used depended on the agent used. Incubations lasted 48 hours in 5% CO2 atmosphere and 100% humidity. The cells were assayed by Sulforhodomine B assay as described by Rubenstein et al., JNCI, 1990, 82:1113-1118 and Skehan et al., JNCI, 1990, 82: 1107-1112. Optical densities were read with a plate reader and the data processed using a microcomputer into special concentration parameters.
NCI renamed the IC50 value, the concentration that causes 50% growth inhibition the “GI50” value to emphasize the correction for the cell count at time zero; thus GI50 is the concentration of test drug where 100×(T−T0)/(C−T0)=50 (Boyd et al., In Cytotoxic Anticancer Drugs: Models and Concepts for Drug Discovery and Development, Vieriote. et al., Eds., Kluwer Academic, Hingham, Mass., 1992, pp 11-34; and Monks et al., JNCI, 1991, 83, 757-766. The optical density of the test well after a 48 hr period of exposure to the test compound is “T”, the optical density at time zero is TO and the control optical density is “C.” The “50” is called the GI50PRCNT, a T/C-like parameter that can have values from +100 to −100. The GI50 also measures the growth inhibitory power of the test compound. The TGI is the concentration of test drug where 100×(T−T0)/(C−T0)=0. Thus, the TGI signifies a cytostatic effect. The LC50 which signifies a cytotoxic effect, is the concentration of the test compound where 100×(T−T0)/T0=−50. The control optical density is not used in the calculation of LC50.
These concentration parameters are interpolated values. The concentrations giving G150PRCNT values above and below the reference values (e.g. 50 for G150) are used to make interpolations on the concentration axis. […] For mean graph purposes, the value assumed for the G150 in such a case is the highest concentration tested (HICONC). […] In this case, the lowest concentration tested is used for the G150. Corresponding approximations are made for the TGI and for the LC50.
The results of the tumor cell screening are shown in the mean graphs of 56-62. […]

L1210 = settings: cited from earlier work
brain Na+, K+-ATPase = settings: read-out: inhibition of brain Na+, K+-ATPase (IC50); cited from earlier work
P388 = settings: cited from earlier work
[1] = biological target: T1, Ca2+-ATPase from skeletal sarcoplasmic reticulum (Homo sapiens, UniProt O14983); settings: read-out: inhibition of Ca2+-ATPase from skeletal sarcoplasmic reticulum (IC50); cited from earlier work
T1 construct: from tissue; host or cells: skeletal muscle sarcoplasmic reticulum
T1 sequence (O14983 whole entry): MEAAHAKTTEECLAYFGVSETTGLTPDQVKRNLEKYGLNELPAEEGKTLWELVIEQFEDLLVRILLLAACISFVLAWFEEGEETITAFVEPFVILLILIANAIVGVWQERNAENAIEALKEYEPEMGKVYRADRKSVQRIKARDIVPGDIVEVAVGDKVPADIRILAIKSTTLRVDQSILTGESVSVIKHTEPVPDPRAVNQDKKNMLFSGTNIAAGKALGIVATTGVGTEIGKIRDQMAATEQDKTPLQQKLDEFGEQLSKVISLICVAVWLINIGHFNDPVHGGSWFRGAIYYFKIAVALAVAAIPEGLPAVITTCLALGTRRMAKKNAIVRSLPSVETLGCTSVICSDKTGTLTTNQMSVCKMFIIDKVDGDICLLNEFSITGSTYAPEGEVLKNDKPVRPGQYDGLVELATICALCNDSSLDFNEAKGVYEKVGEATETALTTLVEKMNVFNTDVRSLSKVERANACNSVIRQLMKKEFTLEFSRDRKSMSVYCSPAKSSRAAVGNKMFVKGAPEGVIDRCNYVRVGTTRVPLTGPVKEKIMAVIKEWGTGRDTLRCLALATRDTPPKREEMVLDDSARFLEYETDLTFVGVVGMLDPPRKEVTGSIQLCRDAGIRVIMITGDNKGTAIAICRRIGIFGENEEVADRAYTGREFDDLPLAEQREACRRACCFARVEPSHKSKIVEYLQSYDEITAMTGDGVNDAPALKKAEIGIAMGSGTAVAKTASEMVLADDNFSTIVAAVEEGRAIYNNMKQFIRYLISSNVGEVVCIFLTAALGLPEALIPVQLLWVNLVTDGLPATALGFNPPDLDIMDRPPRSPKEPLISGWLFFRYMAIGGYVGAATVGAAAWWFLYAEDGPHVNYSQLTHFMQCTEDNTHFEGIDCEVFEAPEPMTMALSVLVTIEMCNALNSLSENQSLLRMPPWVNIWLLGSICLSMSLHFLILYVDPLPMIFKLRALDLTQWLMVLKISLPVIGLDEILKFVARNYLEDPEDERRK

Candida albicans = settings: cited from earlier work
[2] = test system: Herpes simplex virus, type 1 (HSV-1); settings: at a concentration of 0.2 μg/mL; cited from earlier work

| Compound | effect on tumor cell lines in the NCI screen (mean graphs of GI50, TGI, LC50; summary in words) (60 tumor cell lines) | also measured |
| --- | --- | --- |
| crambescidin 657 hydrochloride | certain cancer cell lines are sensitive | – |
| 13-epiptilomycalin A | certain cancer cell lines are sensitive | – |
| 13,14,15-Isocrambescidin 800 Trihydrochloride | lesser effect | cytotoxicity to L-1210 cells relative to other crambescidins (L1210; L-1210 cells, in words): less cytotoxic to L-1210 cells than other crambescidins |
| Peracetylcrambescidin 800 [triacetylcrambescidin 800 chloride] | certain cancer cell lines are sensitive | – |
| CC[C@H]1C=CCC[C@@]2(C[C@@H]3CC[C@@H]4[C@H](C(=O)OCCCCCCCCCCCCCCCC(=O)N(CCCN)C[C@@H](O)CCN)[C@]5(CCC[C@@H](C)O5)NC(=N2)N34)O1.Cl.Cl.Cl [crambescidin 800 trihydrochloride, Crambescidin 800 Trihydrochloride] | certain cancer cell lines are sensitive | – |
| CCC1C=CCCC2(CC3CCC4C(C(=O)OCCCCCCCCCCCCCCCC(=O)N(CCCN)CCCCN)C5(CCCC(C)O5)NC(=N2)N34)O1 (centres unmarked) [Ptilomycalin A] | certain cancer cell lines are sensitive | IC50 (brain Na+, K+-ATPase): 2 µM; cytotoxicity against P388 (IC50) (P388): 0.1 µg/mL; cytotoxicity against L1210 (IC50) (L1210; L1210): 0.4 µg/mL; IC50 [1]: 10 µM; antifungal activity against Candida albicans (MIC) (Candida albicans): 0.8 µg/mL; antiviral activity against Herpes simplex virus, type 1 (HSV-1) [2]: considerable antiviral activity |
| Peracetyl-13,14,15-Isocrambescidin 800 Hydrochloride [triacetylisocrambescidin 800 chloride] | lesser effect | – |
